Numbers after ± are expanded uncertainties.
Assay: xn = mol fraction of the nth substance listed
Details: 101 kPa, Liquid, Pycnometric method

C=CC(=O)OCCCC [butyl 2-propenoate] + C1CCOC1
mass density [kg/m3]
Details | 293.15 K | 298.15 K | 303.15 K | 308.15 K | 313.15 K | 318.15 K
x2 = 0 | 898.85 ± 1 | 894.1 ± 1 | 889.35 ± 1 | 884.6 ± 1 | 879.85 ± 1 | 875.1 ± 1
x2 = 0.0712 | 898.62 ± 1 | 893.89 ± 1 | 889.16 ± 1 | 884.42 ± 1 | 879.68 ± 1 | 874.94 ± 1
x2 = 0.1406 | 898.39 ± 1 | 893.66 ± 1 | 888.93 ± 1 | 884.19 ± 1 | 879.45 ± 1 | 874.71 ± 1
x2 = 0.208 | 898.1 ± 1 | 893.37 ± 1 | 888.64 ± 1 | 883.91 ± 1 | 879.17 ± 1 | 874.43 ± 1
x2 = 0.2779 | 897.74 ± 1 | 893.01 ± 1 | 888.27 ± 1 | 883.53 ± 1 | 878.79 ± 1 | 874.05 ± 1
x2 = 0.3685 | 897.14 ± 1 | 892.4 ± 1 | 887.66 ± 1 | 882.91 ± 1 | 878.16 ± 1 | 873.41 ± 1
x2 = 0.4339 | 896.6 ± 1 | 891.85 ± 1 | 887.1 ± 1 | 882.35 ± 1 | 877.59 ± 1 | 872.83 ± 1
x2 = 0.4996 | 895.97 ± 1 | 891.21 ± 1 | 886.45 ± 1 | 881.69 ± 1 | 876.92 ± 1 | 872.15 ± 1
x2 = 0.5642 | 895.25 ± 1 | 890.48 ± 1 | 885.71 ± 1 | 880.93 ± 1 | 876.15 ± 1 | 871.37 ± 1
x2 = 0.6426 | 894.22 ± 1 | 889.43 ± 1 | 884.64 ± 1 | 879.85 ± 1 | 875.05 ± 1 | 870.25 ± 1
x2 = 0.7208 | 893.03 ± 1 | 888.22 ± 1 | 883.41 ± 1 | 878.59 ± 1 | 873.77 ± 1 | 868.95 ± 1
x2 = 0.7956 | 891.72 ± 1 | 886.88 ± 1 | 882.04 ± 1 | 877.2 ± 1 | 872.36 ± 1 | 867.51 ± 1
x2 = 0.8642 | 890.32 ± 1 | 885.45 ± 1 | 880.58 ± 1 | 875.71 ± 1 | 870.84 ± 1 | 865.97 ± 1
x2 = 0.9322 | 888.76 ± 1 | 883.86 ± 1 | 878.96 ± 1 | 874.05 ± 1 | 869.14 ± 1 | 864.23 ± 1

C=CC(=O)OCC [ethyl propenoate] + C1CCOC1
mass density [kg/m3]
Details | 293.15 K | 298.15 K | 303.15 K | 308.15 K | 313.15 K | 318.15 K
x2 = 0 | 921.76 ± 1 | 915.95 ± 1 | 910.14 ± 1 | 904.33 ± 1 | 898.52 ± 1 | 892.71 ± 1
x2 = 0.0825 | 920.35 ± 1 | 914.64 ± 1 | 908.93 ± 1 | 903.22 ± 1 | 897.5 ± 1 | 891.78 ± 1
x2 = 0.167 | 918.74 ± 1 | 913.11 ± 1 | 907.48 ± 1 | 901.85 ± 1 | 896.22 ± 1 | 890.59 ± 1
x2 = 0.2302 | 917.35 ± 1 | 911.79 ± 1 | 906.23 ± 1 | 900.67 ± 1 | 895.1 ± 1 | 889.53 ± 1
x2 = 0.316 | 915.21 ± 1 | 909.73 ± 1 | 904.25 ± 1 | 898.77 ± 1 | 893.29 ± 1 | 887.81 ± 1
x2 = 0.3892 | 913.14 ± 1 | 907.73 ± 1 | 902.32 ± 1 | 896.91 ± 1 | 891.5 ± 1 | 886.09 ± 1
x2 = 0.4603 | 910.93 ± 1 | 905.58 ± 1 | 900.23 ± 1 | 894.88 ± 1 | 889.53 ± 1 | 884.18 ± 1
x2 = 0.5286 | 908.61 ± 1 | 903.32 ± 1 | 898.03 ± 1 | 892.74 ± 1 | 887.45 ± 1 | 882.16 ± 1
x2 = 0.5947 | 906.16 ± 1 | 900.93 ± 1 | 895.7 ± 1 | 890.47 ± 1 | 885.24 ± 1 | 880 ± 1
x2 = 0.6605 | 903.54 ± 1 | 898.36 ± 1 | 893.18 ± 1 | 888 ± 1 | 882.82 ± 1 | 877.64 ± 1
x2 = 0.7283 | 900.64 ± 1 | 895.52 ± 1 | 890.4 ± 1 | 885.28 ± 1 | 880.16 ± 1 | 875.04 ± 1
x2 = 0.7874 | 897.95 ± 1 | 892.88 ± 1 | 887.81 ± 1 | 882.74 ± 1 | 877.67 ± 1 | 872.6 ± 1
x2 = 0.8689 | 894 ± 1 | 888.98 ± 1 | 883.96 ± 1 | 878.94 ± 1 | 873.92 ± 1 | 868.9 ± 1
x2 = 0.936 | 890.52 ± 1 | 885.53 ± 1 | 880.54 ± 1 | 875.55 ± 1 | 870.56 ± 1 | 865.57 ± 1

— the NIST ThermoML archive (doi:10.1016/j.jct.2016.10.042)
